The vapor or sublimation pressure is the pressure of vapour in equilibrium with the condensed phase.

For the data set the following is noted: Liquid.

Numbers after ± are expanded uncertainties.

As for `CC(Cl)CCl` (stereo unspecified) [1,2-dichloropropane], the “vapor or sublimation pressure” value runs as follows: (333.15 K) 30.14 ± 0.27 kPa; (353.15 K) 61.07 ± 0.44 kPa.
Take `OCCCCO` [1,4-butanediol]: the “vapor or sublimation pressure” value (383.15 K) is reported as 0.664 ± 0.064 kPa.
As for `C=CCCC=C` [1,5-hexadiene], the “vapor or sublimation pressure” value stood at 103.15 ± 1.3 kPa (333.15 K) and 316.61 ± 2.2 kPa (373.1 K).
Consider `CC(=O)OC(C)C` [1-methylethyl ethanoate], for which the “vapor or sublimation pressure” value runs as follows: (333.15 K) 37.73 ± 0.44 kPa; (393.15 K) 249.59 ± 1.8 kPa; (453.15 K) 939.9 ± 6 kPa.
With `CC(C)C` [2-methylpropane], the “vapor or sublimation pressure” value (298.15 K) turned out to be 352.39 ± 2.8 kPa and the “vapor or sublimation pressure” value (348.15 K) is listed as 1212.7 ± 7.9 kPa.
As to `C=CCCl` [3-chloro-1-propene], the “vapor or sublimation pressure” value stood at 164.65 ± 1.6 kPa (333.15 K) and 489.25 ± 3.4 kPa (373.1 K).
Turning to `Cl/C=C\CCl` [(Z)-1,3-dichloro-1-propene], the “vapor or sublimation pressure” value is, setting by setting: (333.15 K) 22.61 ± 0.25 kPa; (353.15 K) 47.29 ± 0.42 kPa.
In the case of `CC#N` [acetonitrile], the “vapor or sublimation pressure” value by setting is: (333.15 K) 49.16 ± 0.53 kPa; (393.15 K) 297.37 ± 2.1 kPa; (453.15 K) 1096.9 ± 7 kPa.
Regarding `CC(=O)c1ccccc1` [acetophenone], the “vapor or sublimation pressure” value reads like this: (373.1 K) 3.573 ± 0.091 kPa; (433.15 K) 32.02 ± 0.24 kPa.
Turning to `C=CCl` [chloroethene], the “vapor or sublimation pressure” value came out at 172 ± 1.8 kPa (273.1 K) and 601.5 ± 4 kPa (313.15 K).
With `C1CO1` [oxirane], the “vapor or sublimation pressure” value reads like this: (298.15 K) 174.71 ± 1.6 kPa; (348.15 K) 766.7 ± 5 kPa.
Regarding `Oc1ccccc1` [phenol], the “vapor or sublimation pressure” value (373.1 K) stood at 5.506 ± 0.12 kPa and the “vapor or sublimation pressure” value (433.15 K) is 53.23 ± 0.37 kPa.
For the molecule `O=C1CCCO1` [γ-butyrolactone], where the note is “383.15 K”, the “vapor or sublimation pressure” value is given as 5.15 ± 0.087 kPa.

(Values after the NIST ThermoML archive (doi:10.1021/je050317k).)
